Reference: US20230073777A1, “CYCLIC-AMP RESPONSE ELEMENT BINDING PROTEIN (CBP) AND/OR ADENOVIRAL E1A BINDING PROTEIN OF 300 KDA (P300) DEGRADATION COMPOUNDS AND METHODS OF USE” (CULLGEN (SHANGHAI), INC., priority 2019, published 2023)
Where two headings read alike, the source gives them in different places.

Legend:
LNCaP cells = test: LNCaP cell viability assay (CellTiter-Glo); format: cell-based; settings: Homo sapiens, 72 h, LNCaP prostate cancer cell viability inhibition, 3 days
Procedure, shortened: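 Three-day treatment of LNCaP cells (5000 per well) across a 12-point, 3-fold dilution series starting at 10 μM. ATP luminescence (CellTiter-Glo) relative to untreated controls gave dose-response curves fitted nonlinearly for IC50.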

P300 = P300 (Homo sapiens, UniProt Q09472); test: Immunoblotting of P300 protein levels in LNCaP or 22RV1 cells; format: cell-based; parameters: LNCaP or 22RV1 cells that express CBP/P300 proteins were treated with GNE-781 or the bivalent compounds; endogenous in cells; host or cells: LNCaP (clone FGC) or 22RV1 cells; settings: read-out: Degradation (10 nM)
Procedure, shortened: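 P300/CBP levels quantified by chemiluminescent immunoblot band densitometry, normalized against tubulin or vinculin loading controls. Lysates came from LNCaP or 22RV1 cells exposed to compounds or DMSO vehicle for indicated times.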

[1] = percentage of inhibition of p300 at 10 nM (Table 3)
[2] = percentage of inhibition of p300 at 10 nM (Table 2)

Sequence of P300 (Q09472 whole entry): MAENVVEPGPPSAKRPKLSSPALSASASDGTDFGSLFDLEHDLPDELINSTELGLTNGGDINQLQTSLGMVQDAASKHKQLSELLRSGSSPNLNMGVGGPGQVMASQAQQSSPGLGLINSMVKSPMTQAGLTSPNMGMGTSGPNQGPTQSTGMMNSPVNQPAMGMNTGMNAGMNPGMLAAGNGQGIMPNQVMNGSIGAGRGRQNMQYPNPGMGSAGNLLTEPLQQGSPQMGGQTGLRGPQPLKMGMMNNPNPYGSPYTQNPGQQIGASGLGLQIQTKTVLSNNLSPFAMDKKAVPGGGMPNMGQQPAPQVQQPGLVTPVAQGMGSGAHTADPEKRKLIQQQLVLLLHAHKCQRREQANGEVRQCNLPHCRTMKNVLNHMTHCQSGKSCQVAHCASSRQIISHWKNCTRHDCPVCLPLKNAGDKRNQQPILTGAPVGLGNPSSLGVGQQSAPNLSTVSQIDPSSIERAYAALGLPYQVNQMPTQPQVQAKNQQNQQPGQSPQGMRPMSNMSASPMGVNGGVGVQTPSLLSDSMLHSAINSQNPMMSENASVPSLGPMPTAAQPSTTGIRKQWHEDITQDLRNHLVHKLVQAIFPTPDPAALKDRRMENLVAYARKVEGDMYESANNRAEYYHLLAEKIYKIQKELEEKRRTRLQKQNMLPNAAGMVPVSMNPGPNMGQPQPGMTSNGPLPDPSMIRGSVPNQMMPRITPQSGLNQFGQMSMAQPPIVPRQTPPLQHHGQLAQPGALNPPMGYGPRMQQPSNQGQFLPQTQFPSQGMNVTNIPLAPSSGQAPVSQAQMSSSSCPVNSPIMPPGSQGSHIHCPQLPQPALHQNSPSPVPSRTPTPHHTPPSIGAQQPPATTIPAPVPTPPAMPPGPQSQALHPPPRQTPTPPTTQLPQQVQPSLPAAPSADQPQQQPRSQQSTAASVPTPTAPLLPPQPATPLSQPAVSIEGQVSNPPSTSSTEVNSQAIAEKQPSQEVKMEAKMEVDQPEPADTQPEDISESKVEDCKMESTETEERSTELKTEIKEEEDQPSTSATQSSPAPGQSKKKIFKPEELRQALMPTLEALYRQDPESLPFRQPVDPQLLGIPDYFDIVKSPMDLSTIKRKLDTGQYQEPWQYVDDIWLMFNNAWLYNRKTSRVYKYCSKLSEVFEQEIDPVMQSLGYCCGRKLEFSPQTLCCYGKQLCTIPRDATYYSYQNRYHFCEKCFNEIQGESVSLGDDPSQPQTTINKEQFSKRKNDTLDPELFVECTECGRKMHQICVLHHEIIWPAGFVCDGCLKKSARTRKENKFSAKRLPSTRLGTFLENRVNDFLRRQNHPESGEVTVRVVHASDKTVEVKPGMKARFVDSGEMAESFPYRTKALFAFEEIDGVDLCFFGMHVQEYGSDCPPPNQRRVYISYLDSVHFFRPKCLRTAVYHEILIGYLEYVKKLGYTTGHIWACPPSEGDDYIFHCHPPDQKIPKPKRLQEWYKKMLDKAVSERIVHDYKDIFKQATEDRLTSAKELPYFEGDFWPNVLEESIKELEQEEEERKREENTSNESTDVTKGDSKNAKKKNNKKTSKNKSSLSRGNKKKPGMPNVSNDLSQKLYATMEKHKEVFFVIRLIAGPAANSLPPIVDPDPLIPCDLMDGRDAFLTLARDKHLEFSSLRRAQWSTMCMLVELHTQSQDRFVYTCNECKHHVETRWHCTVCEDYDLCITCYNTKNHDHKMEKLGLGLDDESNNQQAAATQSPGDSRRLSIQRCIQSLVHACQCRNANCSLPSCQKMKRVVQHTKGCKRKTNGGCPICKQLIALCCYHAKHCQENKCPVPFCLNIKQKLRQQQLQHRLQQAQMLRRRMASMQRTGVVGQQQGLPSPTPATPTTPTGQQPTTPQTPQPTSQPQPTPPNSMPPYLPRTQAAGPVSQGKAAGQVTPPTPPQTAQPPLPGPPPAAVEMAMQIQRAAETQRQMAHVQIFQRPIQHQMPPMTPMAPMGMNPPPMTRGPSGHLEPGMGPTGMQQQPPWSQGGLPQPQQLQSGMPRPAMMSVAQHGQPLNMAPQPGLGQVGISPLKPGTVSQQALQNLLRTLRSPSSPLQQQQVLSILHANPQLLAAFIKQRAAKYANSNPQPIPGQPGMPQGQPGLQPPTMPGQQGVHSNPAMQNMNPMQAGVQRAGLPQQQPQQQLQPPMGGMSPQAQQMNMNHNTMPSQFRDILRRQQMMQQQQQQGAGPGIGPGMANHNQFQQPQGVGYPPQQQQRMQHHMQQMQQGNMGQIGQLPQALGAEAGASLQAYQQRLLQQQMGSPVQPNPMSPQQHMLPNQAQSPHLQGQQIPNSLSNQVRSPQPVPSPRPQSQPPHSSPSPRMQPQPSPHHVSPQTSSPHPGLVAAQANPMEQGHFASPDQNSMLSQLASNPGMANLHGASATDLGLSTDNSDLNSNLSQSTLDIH

IC50 (LNCaP cells; CellTiter-Glo (Table 3)) [nM]	inhibition at 0.01 µM (P300; [1]) [%]	IC50 (LNCaP cells; CellTiter-Glo (Table 2)) [nM]	inhibition at 0.01 µM (P300; [2]) [%]	Structure (SMILES)	inhibition at 0.01 µM (P300) [%]
13.1	50 to 80			CNC(=O)N1CCc2c(c(N3CCCc4cc(-c5cnn(C)c5)c(C(F)F)cc43)nn2C2CCN(C(=O)CCCCCOc3cccc4c3C(=O)N(C3CCC(=O)NC3=O)C4=O)CC2)C1 (centres unmarked) [P-084, 3-(7-(Difluoromethyl)-6-(1-methyl-1H-pyrazol-4-yl)-3,4-dihydroquinolin-1(2H)-yl)-1-(1-(6-((2-(2,6-dioxopiperidin-3-yl)-1,3-dioxoisoindolin-4-yl)oxy)hexanoyl)piperidin-4-yl)-N-methyl-1,4,6,7-tetrahydro-5H-pyrazolo[4,3-c]pyridine-5-carboxamide]	
		278	< 20	CNC(=O)N1CCc2c(c(N3CCCc4cc(-c5cnn(CC(=O)NCCOCCNc6cccc7c6C(=O)N(C6CCC(=O)NC6=O)C7=O)c5)c(C(F)F)cc43)nn2C2CCOCC2)C1 (centres unmarked) [P-021]	

Continued, molecule first:

Structure (SMILES)	IC50 (LNCaP cells; CellTiter-Glo (Table 3)) [nM]	inhibition at 0.01 µM (P300; [1]) [%]	IC50 (LNCaP cells; CellTiter-Glo (Table 2)) [nM]	inhibition at 0.01 µM (P300; [2]) [%]	inhibition at 0.01 µM (P300) [%]
CC(=O)N1CCc2c(c(N3CCCc4cc(-c5cnn(C)c5)c(C(F)F)cc43)nn2C2CCN(C(=O)CCCCNc3cccc4c3n(C)c(=O)n4C3CCC(=O)NC3=O)CC2)C1 (centres unmarked) [P-128, 3-(4-((5-(4-(5-Acetyl-3-(7-(difluoromethyl)-6-(1-methyl-1H-pyrazol-4-yl)-3,4-dihydroquinolin-1(2H)-yl)-4,5,6,7-tetrahydro-1H-pyrazolo[4,3-c]pyridin-1-yl)piperidin-1-yl)-5-oxopentyl)amino)-3-methyl-2-oxo-2,3-dihydro-1H-benzo[d]imidazol-1-yl)piperidine-2,6-dione]	244	20 to 50			
CNC(=O)N1CCc2c(c(N3CCCc4cc(-c5cnn(C)c5)c(C(F)F)cc43)nn2C2CCN(C(=O)CCCNc3ccc4c(c3)C(=O)N(C3CCC(=O)NC3=O)C4=O)CC2)C1 (centres unmarked) [P-003, 3-(7-(Difluoromethyl)-6-(1-methyl-1H-pyrazol-4-yl)-3,4-dihydroquinolin-1(2H)-yl)-1-(1-(4-((2-(2,6-dioxopiperidin-3-yl)-1,3-dioxoisoindolin-5-yl)amino)butanoyl)piperidin-4-yl)-N-methyl-1,4,6,7-tetrahydro-5H-pyrazolo[4,3-c]pyridine-5-carboxamide]			35.7	50 to 80	
CNC(=O)N1CCc2c(c(N3CCCc4cc(-c5cnn(C)c5)c(C(F)F)cc43)nn2C2CCN(C(=O)CCCCCCn3c(=O)n(C4CCC(=O)NC4=O)c4ccccc43)CC2)C1 (centres unmarked) [P-106, 3-(7-(difluoromethyl)-6-(1-methyl-1H-pyrazol-4-yl)-3,4-dihydroquinolin-1(2H)-yl)-1-(1-(7-(3-(2,6-dioxopiperidin-3-yl)-2-oxo-2,3-dihydro-1H-benzo[d]imidazol-1-yl)heptanoyl)piperidin-4-yl)-N-methyl-1,4,6,7-tetrahydro-5H-pyrazolo[4,3-c]pyridine-5-carboxamide]	24.2				50 to 80
CNC(=O)N1CCc2c(c(N3CCCc4cc(-c5cnn(C)c5)c(C(F)F)cc43)nn2C2CCN(C(=O)CCCCNc3cccc4c3C(=O)N(C3CCC(=O)NC3=O)C4=O)CC2)C1 (centres unmarked) [P-033, 3-(7-(difluoromethyl)-6-(1-methyl-1H-pyrazol-4-yl)-3,4-dihydroquinolin-1(2H)-yl)-1-(1-(5-((2-(2,6-dioxopiperidin-3-yl)-1,3-dioxoisoindolin-4-yl)amino)pentanoyl)piperidin-4-yl)-N-methyl-1,4,6,7-tetrahydro-5H-pyrazolo[4,3-c]pyridine-5-carboxamide]			4.8	> 80	
CC(=O)N1CCc2c(c(N3CCCc4cc(-c5cnn(C)c5)c(C(F)F)cc43)nn2C2CCN(CCc3ccc(COc4cccc5c4CN(C4CCC(=O)NC4=O)C5=O)cc3)CC2)C1 (centres unmarked) [P-173, 3-(4-((4-(2-(4-(5-acetyl-3-(7-(difluoromethyl)-6-(1-methyl-1H-pyrazol-4-yl)-3,4-dihydroquinolin-1(2H)-yl)-4,5,6,7-tetrahydro-1H-pyrazolo[4,3-c]pyridin-1-yl)piperidin-1-yl)ethyl)benzyl)oxy)-1-oxoisoindolin-2-yl)piperidine-2,6-dione]	3.4	20 to 50			
